Laboratory results: the SangsterLogP compilation

assay: method code SF, from PMID: 3778562

Row | Compound | logP
1 | COc1cc(OC)c2c(c1)OC(c1ccc(OC)c(OC)c1)C(OC)C2 (configuration not stated) | 3.68
2 | Oc1cc(O)c2c(c1)OC(c1ccc(O)c(O)c1)C(O)C2O (configuration not stated) | 0.95
3 | O=C1C[C@@H](c2ccc(O)c(O)c2)Oc2cccc(O)c21 | 2.81
4 | O=C1C[C@@H](c2ccc(O)cc2)Oc2cc(O[C@H]3O[C@@H](CO)[C@H](O)[C@@H](O)[C@@H]3O)cc(O)c21 | -0.44
5 | O=c1c(O)c(-c2ccc(O)c(O)c2)oc2cc(O)ccc12 | 2.53
6 | NCCCOC1Cc2c(O)cc(O)cc2OC1c1ccc(O)c(O)c1 (configuration not stated) | 0.52
7 | C[C@@H]1O[C@@H](O[C@H]2[C@H](Oc3cc(O)c4c(c3)O[C@H](c3ccc(O)cc3)CC4=O)O[C@H](CO)[C@@H](O)[C@@H]2O)[C@H](O)[C@H](O)[C@H]1O | -0.44
8 | O=C(OC1Cc2c(O)cc(O)cc2OC1c1ccc(O)c(O)c1)c1ccc(O)c(O)c1 (configuration not stated) | 2.45
9 | O=c1cc(-c2ccc(O)cc2)oc2cc(O)cc(O)c12 | 3.02
10 | CCCCCCCCCCCCCCCC(=O)O[C@H]1Cc2c(O)cc(O)cc2O[C@@H]1c1ccc(O)c(O)c1 | 8.7
11 | CCCO[C@H]1Cc2c(O)cc(O)cc2O[C@@H]1c1ccc(O)c(O)c1 | 2.12
12 | Cc1cc(C)c2c(c1)O[C@H](c1ccc(C)c(C)c1)[C@@H](O)C2 | 3.1
13 | O=C(Cc1ccccc1)O[C@H]1Cc2c(O)cc(O)cc2O[C@@H]1c1ccc(O)c(O)c1 | 3.09
14 | O=C(O)CCC(=O)O[C@H]1Cc2c(O)cc(O)cc2O[C@@H]1c1ccc(O)c(O)c1 | 1.41
15 | O=C1C[C@@H](c2cccc(O)c2)Oc2cc(O)cc(O)c21 | 2.51
16 | C[C@@H]1O[C@@H](Oc2c(-c3ccc(O)c(O)c3)oc3cc(O)cc(O)c3c2=O)[C@H](O)[C@H](O)[C@H]1O | 1.78
17 | COc1ccc(-c2oc3cc(O)cc(O)c3c(=O)c2O)cc1 | 3.97
18 | CCCC(=O)O[C@H]1Cc2c(O)cc(O)cc2O[C@@H]1c1ccc(O)c(O)c1 | 2.47
19 | O=C(Nc1ccccc1)OC1Cc2c(O)cc(O)cc2OC1c1ccc(O)c(O)c1 (configuration not stated) | 3.05
20 | CCCCO[C@H]1Cc2c(O)cc(O)cc2O[C@@H]1c1ccc(O)c(O)c1 | 2.64
21 | O=C(O[C@H]1Cc2c(O)cc(O)cc2O[C@@H]1c1ccc(O)c(O)c1)c1ccccc1 | 3.44
22 | O=c1c(O)c(-c2cccc(O)c2)oc2cc(O)ccc12 | 2.51
23 | CO[C@H]1Cc2c(O)cc(O)cc2O[C@@H]1c1ccc(O)c(O)c1 | 1
24 | O=c1c(O)c(-c2ccc(O)cc2O)oc2cc(O)cc(O)c12 | 2.61

Row | Compound | logP
25 | COc1cc(OC)c2c(c1)O[C@H](c1ccc(OC)c(OC)c1)[C@@H](O)C2 | 3.1
26 | O=C1C[C@@H](c2ccc(O)c(O)c2)Oc2cc(O)ccc21 | 1.94
27 | COc1ccc(-c2cc(=O)c3c(O)cc(O)cc3o2)cc1O | 3.1
28 | Oc1cc(O)c2c(c1)OC(c1ccc(O)c(O)c1)C(OCCCc1ccccc1)C2 (configuration not stated) | 3.78
29 | O=C(O[C@H]1Cc2c(O)cc(O)cc2O[C@@H]1c1ccc(O)c(O)c1)c1ccc(F)cc1 | 3.64
30 | CCCCCCCCCCCCCCCCO[C@H]1Cc2c(O)cc(O)cc2O[C@@H]1c1ccc(O)c(O)c1 | 8.87
31 | O=c1cc(-c2ccc(O)c(O)c2)oc2cccc(O)c12 | 3.31
32 | CCCCCCCO[C@H]1Cc2c(O)cc(O)cc2O[C@@H]1c1ccc(O)c(O)c1 | 4.2
33 | CCCCCCCCCC(=O)O[C@H]1Cc2c(O)cc(O)cc2O[C@@H]1c1ccc(O)c(O)c1 | 5.58
34 | CC(=O)Oc1ccccc1C(=O)OC1Cc2c(O)cc(O)cc2OC1c1ccc(O)c(O)c1 (configuration not stated) | 2.87
35 | CCCCCCCCCCCCO[C@H]1Cc2c(O)cc(O)cc2O[C@@H]1c1ccc(O)c(O)c1 | 6.79
36 | O=c1c(O)c(-c2ccc(O)cc2)oc2cc(O)cc(O)c12 | 3.39
37 | O=C1C[C@@H](c2ccc(O)c(O)c2)Oc2cc(O)cc(O)c21 | 2.02
38 | O=c1c(O)c(-c2ccc(O)cc2)oc2cc(O)ccc12 | 3.02
39 | O=c1cc(-c2ccccc2)oc2cc(O)cc(O)c12 | 3.52
40 | O=C1CC(c2ccc(O)cc2)Oc2cc(O)cc(O)c21 (stereo in doubt) | 2.52
41 | COc1ccc([C@@H]2CC(=O)c3c(O)cc(O)cc3O2)cc1O | 2.6
42 | Oc1cc(O)c2c(c1)O[C@@H](c1ccc(O)c(O)c1)C(OCO[C@@H]1Cc3c(O)cc(O)cc3O[C@H]1c1ccc(O)c(O)c1)C2 (some centres not stated) | 2.15
43 | O=c1cc(-c2ccc(O)c(O)c2)oc2cc(O)ccc12 | 1.94
44 | N#CCCO[C@H]1Cc2c(O)cc(O)cc2O[C@@H]1c1ccc(O)c(O)c1 | 0.96
45 | COc1ccc(-c2cc(=O)c3c(O)cc(O[C@@H]4O[C@H](CO[C@@H]5O[C@@H](C)[C@H](O)[C@@H](O)[C@H]5O)[C@@H](O)[C@H](O)[C@H]4O)cc3o2)cc1O | 0.14
46 | COc1ccc(-c2oc3ccccc3c(=O)c2O)cc1OC | 4.17
47 | CCCCCCCCCCCCCCCCCCO[C@H]1Cc2c(O)cc(O)cc2O[C@@H]1c1ccc(O)c(O)c1 | 9.91
